Measurements as given in ChEMBL document CHEMBL3826873, “Efficient transmembrane anion transport mediated by a bis(imidazolyl)-functionalized bis(choloyl) conjugate” (Bioorg Med Chem Lett, 2016).
The source made the active and inactive calls. The rule behind the calls is not given here.

Assays:
[1] = Anionophoric activity across egg yolk phosphatidylcholine-based liposomal membrane vesicles (unknown origin) assessed as efflux of chloride anions after 300 seconds in presence of sodium nitrate in external solution by electrode technique; format: ADME; conditions: artificial membrane, 5 min
[2] = Anionophoric activity across egg yolk phosphatidylcholine-based liposomal membrane vesicles (unknown origin) assessed as relative chloride efflux measured as ratio of intrinsic rate constant and dissociation constant of self-association process after 300 seconds in presence of sodium nitrate in external solution by electrode technique; format: ADME; conditions: artificial membrane, 5 min
[3] = Anionophoric activity across egg yolk phosphatidylcholine-based liposomal membrane vesicles (unknown origin) assessed as efflux of chloride anions at 3 mol% after 300 seconds in presence of Li+ by electrode technique; format: ADME; conditions: artificial membrane, 5 min
[4] = Anionophoric activity across egg yolk phosphatidylcholine-based liposomal membrane vesicles (unknown origin) assessed as efflux of chloride anions at 3 mol% after 300 seconds in presence of Na+ by electrode technique; format: ADME; conditions: artificial membrane, 5 min
[5] = Anionophoric activity across egg yolk phosphatidylcholine-based liposomal membrane vesicles (unknown origin) assessed as efflux of chloride anions at 3 mol% after 300 seconds in presence of K+ by electrode technique; format: ADME; conditions: artificial membrane, 5 min
[6] = Anionophoric activity across egg yolk phosphatidylcholine-based liposomal membrane vesicles (unknown origin) assessed as efflux of chloride anions at 3 mol% after 300 seconds in presence of Rb+ by electrode technique; format: ADME; conditions: artificial membrane, 5 min
[7] = Anionophoric activity across egg yolk phosphatidylcholine-based liposomal membrane vesicles (unknown origin) assessed as efflux of chloride anions at 3 mol% after 300 seconds in presence of Cs+ by electrode technique; format: ADME; conditions: artificial membrane, 5 min
[8] = Anionophoric activity across egg yolk phosphatidylcholine-based liposomal membrane vesicles (unknown origin) assessed as efflux of chloride anions at 5 mol% after 300 seconds in presence of sodium sulfate by electrode technique; format: ADME; conditions: artificial membrane, 5 min
[9] = Anionophoric activity across egg yolk phosphatidylcholine-based liposomal membrane vesicles (unknown origin) assessed as induction of pH discharge at 3 mol% after 20 mins in presence of NO3- by fluorescence based pyranine entrap assay; conditions: artificial membrane
[10] = Anionophoric activity across egg yolk phosphatidylcholine-based liposomal membrane vesicles (unknown origin) assessed as induction of pH discharge at 3 mol% after 20 mins in presence of Cl- by fluorescence based pyranine entrap assay; conditions: artificial membrane
[11] = Anionophoric activity across egg yolk phosphatidylcholine-based liposomal membrane vesicles (unknown origin) assessed as induction of pH discharge at 3 mol% after 20 mins in presence of Br- by fluorescence based pyranine entrap assay; conditions: artificial membrane
[12] = Anionophoric activity across egg yolk phosphatidylcholine-based liposomal membrane vesicles (unknown origin) assessed as induction of pH discharge at 3 mol% after 20 mins in presence of I- by fluorescence based pyranine entrap assay; conditions: artificial membrane
[13] = Anionophoric activity across 70% POPC/30% cholesterol-based liposomal membrane vesicles (unknown origin) assessed as induction of pH discharge at 3 mol% after 20 mins by fluorescence based pyranine entrap assay

| Compound | Activity [1] | Ratio [2] | Activity [3] | Activity [4] | Activity [5] | Activity [6] | Activity [7] | Activity [8] | Activity [9] | Activity [10] | Activity [11] | Activity [12] | Activity [13] |
| --- | --- | --- | --- | --- | --- | --- | --- | --- | --- | --- | --- | --- | --- |
| C[C@H](CCC(=O)NC(Cc1cnc[nH]1)C(=O)NCc1ccc(CNC(=O)C(Cc2cnc[nH]2)NC(=O)CC[C@@H](C)[C@@H]2CC[C@@H]3[C@@H]4[C@@H](C[C@@H](O)[C@]32C)[C@]2(C)CC[C@H](O)C[C@@H]2C[C@@H]4O)cc1)[C@H]1CC[C@H]2[C@@H]3[C@H](O)C[C@@H]4C[C@H](O)CC[C@]4(C)[C@H]3C[C@H](O)[C@]12C (some centres undefined) | Dose-dependent effect | 1.45 ×10⁻² /s | Active | Active | Active | Active | Active | Active | Active | Active | Active | Active | Active |
| C[C@H](CCC(=O)NCc1ccc(CNC(=O)CC[C@@H](C)[C@H]2CC[C@H]3[C@@H]4[C@H](O)C[C@@H]5C[C@H](O)CC[C@]5(C)[C@H]4C[C@H](O)[C@]23C)cc1)[C@H]1CC[C@H]2[C@@H]3[C@H](O)C[C@@H]4C[C@H](O)CC[C@]4(C)[C@H]3C[C@H](O)[C@]12C | Not Active | – | – | – | – | – | – | – | – | – | – | – | – |
